Experimental data: patent US20240245670A1, “DOSING REGIMEN AND PHARMACEUTICAL COMBINATION COMPRISING 3-(1-OXOISOINDOLIN-2-YL)PIPERIDINE-2,6-DIONE DERIVATIVES” (Novartis AG, priority 2018, published 2024)

Tests used:
[1] = PK in repeated oral dose study, MDA-MB231 xenograft human PBMC adoptive transfer mouse model (Table 14); format: in vivo; details: for AUCinf (unbound) / Cmax (unbound): mouse, unbound (73% PPB in mouse)
Method: FIG. 6 is a pictorial representation of the multi-dose PK/PD study design in the human PBMC adoptive transfer mouse model harboring MDA-MB231 xenografts. Fourteen consecutive daily doses of Compound I-57 was administered at 0.3 mg/kg, 1 mg/kg, 3 mg/kg or 30 mg/kg.
The PK/PD relationship of I-57 was examined in the hPBMC AdT model system. Human PBMCs were adoptively transferred into female NSG mice harboring established MDA-MB231 xenografts (FIG. 6). This model was selected based on the observation that IKZF2 positive Tregs (CD4+FOXP3+) were readily identifiable in peripheral blood and infiltrated in the tumor xenografts.
Mice were administered I-57 daily for 14 consecutive days at the doses shown. Longitudinal I-57 plasma concentrations were assessed (Table 14).
Based on the data from this hPBMC AdT mouse model, unbound I-57 (73% percent plasma binding in the mouse) exposures (AUCinf) of 7, 30, 157 and 3474 ng*h/mL are required to achieve the reduction of IKZF2 positivity (via flow cytometry) in tumor Tregs by 31, 43, 56, and 75%, respectively. The relationship between the magnitude and duration of I-57-mediated IKZF2 degradation and subsequent modulation of therapeutically relevant downstream biology is not yet well understood.

[2] = test system: isolated primary human T cells; experiment: In vitro T cell dysfunction/exhaustion assay by sequential TCR stimulation (FIG. 2D); format: cell-based; details: Teff cells; 2.5 nM, 25 nM and 2.5 μM
Source text: FIG. 2C is a bar graph showing the suppressive potency of Treg cells expanded in the presence of Compound I-57.
Although the specific transcriptional targets of IKZF2 remain to be defined, IKZF2 binds to and represses transcription from the IL-2 promoter region (Baine 2013). […] Finally, an in vitro assay recapitulating hallmarks of T cell dysfunction/exhaustion, by sequential TCR stimulation of isolated primary human T cells, was used to test the hypothesis that […] would rescue the exhausted phenotype and enhance Teff cell activity. […] In addition to IKZF1, other known cereblon substrates including translation termination factor G1 to S phase transition 1 (GSPT1) are not degraded by I-57 (FIG. 1).

peripheral T cells = experiment: Proliferation of peripheral T cells (Ki67) in KLH/Squalene immunized cynomolgus monkeys (FIG. 9B); format: in vivo, cynomolgus monkey; details: 3 mg/kg group
Method: FIG. 9B. is a graph showing proliferation of peripheral T cells (Mean+/−SEM, % of predose) upon treatment with 0.1 and 3 mg/kg of Compound I-57 in cynomolgus monkeys.
The PK/PD relationship of I-57 was further examined in cynomolgus monkeys after repeated daily oral doses of 0.1 and 3 mg/kg. In this study, a cohort of animals were initially immunized with an antigen-adjuvant mixture (KLH/Squalene). The experiment was designed to assess the effect of I-57 exposure, and the resulting IKZF2 degradation, on immune response during immunization to test the hypothesis that IKZF2 degradation would result in increased proliferation of stimulated T-cells. In the experiment, daily I-57 oral treatment was initiated 5 days after immunization. An immunization booster dose was administered on day 15. I-57 plasma concentration and IKZF2 expression (as determined by flow cytometry) in FOXP3+ T cells from PBMCs were determined (FIG. 9A and FIG. 9B).
In order to measure the impact of I-57 treatment on the immune response following immunization, serum anti-KLH IG levels were measured longitudinally, and levels of T cell activation were measured in PBMCs by flow cytometry. […] In contrast, the proportion of proliferative peripheral T cells (denoted by Ki67 staining) was increased in the highest dose group (3 mg/kg) in the recall response phase, compared to immunization alone.

[3] = In vivo non-clinical PK / high dose PK; details: mouse; between 3 mg/kg and 100 mg/kg
Method: (§1) The in vivo non-clinical PK profile of I-57 was investigated in mouse, rat, dog and cynomolgus monkey using I-57 free base. […] After p.o. administration, the absorption of I-57 was rapid with peak blood concentration (Tmax) occurring between 1 and 4 hours. […] In high dose PK and toxicology studies with I-57 the exposures in mouse, rat and monkey increased with dose.
The binding to plasma protein of I-57 in vitro was moderate in all species, with an observed difference between rodents (73% in mouse, 76% in rat) and non-rodents (52% in dog and monkey, 54% in human). Blood-to-plasma ratios were in the range of 0.7-1.8 (human 1.1-1.3). […] Based on results with non-radiolabeled I-57 in the dog, a significant amount of unchanged I-57 was renally eliminated (˜20% of dose).

[4] = In vivo non-clinical PK / high dose PK and toxicology exposure; set-up: species or system cynomolgus monkey; details: monkey
Method: as §1

[5] = Toxicology in rats (5-day and 4-week GLP studies); format: in vivo
Source text: The non-clinical safety profile of I-57 was established in vitro, and in vivo in rats and cynomolgus monkeys in studies up to 4-weeks duration. Based on the outcome of these studies, QTc interval prolongation was identified as the principal safety signal for I-57. There were other toxicities such as diarrhea and vomiting in monkeys, and mortality, clinical signs and target organ toxicities in rats; however, these occurred at exposures far above those expected to result in clinical activity.
Clinical signs, decreases in body weight and food consumption, and clinical pathology changes reflecting inflammation, renal and liver injury, and stress were generally evident in the pre-terminal animals. Kidney toxicity was evident in rats at doses >100 mg/kg/day and was characterized by increased weight, hematuria, proteinuria, with or without increased blood urea and creatinine, degeneration, regeneration and inflammation at 300 mg/kg/day.
Similar exposure in the clinic would require doses in human of approximately 2,000 and 5,000 mg QD based on the human PK model. Activity is anticipated well below this dose level.

[6] = p.o. 0.3 mg/kg daily, post 1st dose
[7] = p.o. 0.3 mg/kg daily, post 13th dose
[8] = p.o. 1 mg/kg daily, post 1st dose
[9] = p.o. 1 mg/kg daily, post 13th dose
[10] = p.o. 3 mg/kg daily, post 1st dose
[11] = p.o. 3 mg/kg daily, post 13th dose
[12] = p.o. 30 mg/kg daily, post 1st dose
[13] = p.o. 30 mg/kg daily, post 13th dose

O=C1CCC(N2Cc3cc(C4CCN(Cc5ccccc5)CC4)ccc3C2=O)C(=O)N1 (stereo not shown) [Compound I-57, 3-(5-(1-benzylpiperidin-4-yl)-1-oxoisoindolin-2-yl)piperidine-2,6-dione]
increase in AUC and Cmax with dose ([1]; between 3 and 30 mg/kg, daily oral): over-dose proportional increase
increase in overall AUC and Cmax with dose ([1]; from 0.3 to 3 mg/kg, daily oral): dose proportional increase
AUCinf (unbound) [1, 6]: 0.0071 µg·h/mL
Cmax (unbound) [1, 6]: 0.0029 µg/mL
AUCinf (unbound) [1, 7]: 0.0075 µg·h/mL
Cmax (unbound) [1, 7]: 0.0011 µg/mL
AUCinf (unbound) [1, 8]: 0.03 µg·h/mL
Cmax (unbound) [1, 8]: 0.0088 µg/mL
AUCinf (unbound) [1, 9]: 0.02 µg·h/mL
Cmax (unbound) [1, 9]: 0.0046 µg/mL
AUCinf (unbound) [1, 10]: 0.157 µg·h/mL
Cmax (unbound) [1, 10]: 0.053 µg/mL
AUCinf (unbound) [1, 11]: 0.092 µg·h/mL
Cmax (unbound) [1, 11]: 0.027 µg/mL
AUCinf (unbound) [1, 12]: 3.47 µg·h/mL
Cmax (unbound) [1, 12]: 1.25 µg/mL
AUCinf (unbound) [1, 13]: 4.27 µg·h/mL
Cmax (unbound) [1, 13]: 1.3 µg/mL
unbound exposure (AUCinf) ([1]; required for reduction of IKZF2 positivity in tumor Tregs by 31%): 0.007 µg·h/mL
unbound exposure (AUCinf) ([1]; required for reduction of IKZF2 positivity in tumor Tregs by 43%): 0.03 µg·h/mL
unbound exposure (AUCinf) ([1]; required for reduction of IKZF2 positivity in tumor Tregs by 56%): 0.157 µg·h/mL
unbound exposure (AUCinf) ([1]; required for reduction of IKZF2 positivity in tumor Tregs by 75%): 3.474 µg·h/mL
IFNγ production by IKZF2 positive cells [2]: concomitant increase
levels of Ki67 until the end of the study (peripheral T cells): remained elevated
increase in AUC with dose [3]: roughly dose proportional
increase in AUC with dose ([4]; above 100 mg/kg): less than dose proportional
increase in AUC with dose ([4]; between 10 mg/kg and 100 mg/kg): slightly over-proportional
human dose required for similar exposure (AUC) ([5]; exposure associated with mortality and toxicity in rats at 300 mg/kg, human PK model): ~5,000 mg QD
urinary bladder findings ([5]; rat, in vivo, 300 mg/kg/day): Degenerative changes
doses at which kidney toxicity was evident ([5]; rats): > 100 mg/kg/day
doses at which mortality occurred ([5]; rats, females): > 300 mg/kg/day
